Laboratory results reported in patent US20230098772A1, “ADVANCED MICROBIOME THERAPEUTICS ENGINEERED TO PRODUCE SEROTONIN IN VIVO” (DANMARKS TEKNISKE UNIVERSITET, priority 2019, published 2023).

B1: mutant GCH1: mutant GTP cyclohydrolase I with T198I substitution encoded by mutated folE gene (protein, UniProt P0A6T5 2-222, looked up, variant T198I)
GTP cyclohydrolase 1: PSLSKEAALVHEALVARGLETPLRPPVHEMDNETRKSLIAGHMTEIMQLLNLDLADDSLMETPHRIAKMYVDEIFSGLDYANFPKITLIENKMKVDEMVTVRDITLTSTCEHHFVTIDGKATVAYIPKDSVIGLSKINRIVQFFAQRPQVQERLTQQILIALQTLLGTNNVAVSIDAVHYCVKARGIRDATSATTTISLGGLFKSSQNTRHEFLRAVRHHN

Legend:
[1] = tested on: mice; assay: Open Field Test after 21 days treatment, comparison with fluoxetine; assay type: in vivo, mice (C57BL/6); conditions: oN14 10^9 cells oral gavage, fluoxetine 10 mg/kg I.P.
Description: 9.1.3 Open Field Test: Each mouse was placed in a white, open-roof, well lite, 50 cm (length)×50 cm (width)×38 cm (height) chamber and recorded for 10 minutes following previously described methods (Spohn, S. N. et al., 2016). Mice were then placed back into their original cage. Fecal pellets produced during the 10-minute test were counted. Recordings were then post processed and analyzed using BehaviorCloud as previously described (Spohn, S. N. et al., 2016). Mouse tracking software recorded total path of movement of each mouse, total distance traveled, time spent in the inner zone defined as the […] and outer zone defined as the outer 10 cm border closest to the walls, number of times entering the inner zone, and distance traveled within the inner zone.
(§1) 10.1.1 Administration: as described for oral administration in 6.1.1, but with the following modifications: The mice were administered sterile PBS only (PBS) or freshly-grown 10^9 cells of E. coli Nissle strain designated oN14 (E. coli Nissle strain oN comprising pMUT14-ser) in sterile PBS (oN14) by oral gavage. Additionally, the mice were administered a 200 μl intraperitoneal (I.P.) injection of saline or the SSRI, fluoxetine at 10 mg/kg body weight in saline. The mice received the oral and IP administered co-treatments every 24 hrs at the same time of day for 21 days. Accordingly, the four mice treatment groups received: IP: saline/Gavage: PBS (negative control); IP: Fluoxetine/Gavage: PBS (SSRI positive comparator), IP: saline/Gavage: oN14 (oN14 positive comparator); and IP: Fluoxetine/Gavage: oN14 (positive combination comparator). 24 hours after the last administration, the mice were subjected to motility and behavioral testing.

[2] = tested on: mice; assay: Forced Swim Test after 21 days treatment, comparison with fluoxetine; assay type: in vivo, mice (C57BL/6); conditions: oN14 10^9 cells oral gavage, fluoxetine 10 mg/kg I.P.
Description: 9.1.2 Forced Swim Test: Each mouse was placed in clear cylindrical tanks (30 cm height×20 cm) with 15 cm of water at 23-25° C. for 6 minutes and recorded, as described by Ferguson (2001). Mice were then towel dried and placed under a heat lamp to dry to prevent hypothermia and then placed back in their original cage. Recordings were de-identified and a blinded observer, scored recordings for the time spent immobile during the last 4 minutes of the 6-minute test, as described by Can et al., (2012).
as §1, with “24 hours after the last administration, the mice were subjected to motility and behavioral testing.” left out

[3] = tested on: 5-HT biosynthetic pathway; assay: In vitro metabolite production by E. coli Nissle strains (LC-MS of culture media); assay type: cell-based; conditions: strains comprising pMUT10-5htp; vs folE WT; FIG. 5F
Description: Strains were grown in a modified M9 medium, containing 1× M9 salts (M6030, Sigma Aldrich), 0.2% (w/v) glucose, 0.1% (w/v) casamino acids (Cat. No. C2000, Teknova), 1 mM MgSO4, 50 μM FeCl3, 0.2% (v/v) 2YT medium (composition see below), and 50 mg/L of L-tryptophan unless stated otherwise. Kanamycin was added at a final concentration of 50 mg/L unless stated otherwise. Three single colonies were picked from each strain, grown in 300 μl medium in 96 deep-well plates and shaken at 250 rpm at 37° C. for 16 hours. The main culture was inoculated by diluting this pre-culture 1:100 into fresh medium, and cells were grown for 24 h under the same conditions. In the case of substrate feeding, TRP and 5-HTP was added to the growth medium in an amount of 100 mg TRP or 5-HTP/L. Afterwards, the culture supernatant was separated from cells using a 0.2 μm pore size filter, and frozen at −20° C. until analysis by LC-MS. […]
Detection of serotonin, tryptamine, tryptophan and 5-HTP were conducted by liquid chromatography mass spectrometry (LC-MS) measurements on a Dionex UltiMate 3000 UHPLC (Fisher Scientific, San Jose, Calif.) connected to an Orbitrap Fusion Mass Spectrometer (Thermo Fisher Scientific, San Jose, Calif.). […] Quantification of the compounds was based on calculations from calibration standards analyzed before and after sets of 24 samples. […]

Row | Molecule | distance travelled in the inner zone in OFT [1] | fecal boli produced during the OFT [1] | time spent in the inner zone in OFT [1] | total number of entries in the inner zone in OFT [1] | time of immobility in Forced Swim Test [2] | increase of hydroxylation of tryptophan to 5-hydroxytryptophan catalyzed by human tryptophan 5-hydroxylase [3] [fold]
1 | CNCCC(Oc1ccc(C(F)(F)F)cc1)c1ccccc1 (stereo not drawn) [Fluoxetine] | increased | reduction | increased | increased | significantly reduce | 
2 | B1 |  |  |  |  |  | 4
